6 molecules from ChEMBL document CHEMBL3580534, “Antibacterial Biphenanthrenes from the Fibrous Roots of Bletilla striata” (2015) can be followed below.

≈ marks a conversion by molar mass, not a printed value. Some results are limits rather than exact numbers.

Holding throughout (assay type): functional
The subject of assay [1] is Escherichia coli. The assay is described as follows: Antimicrobial activity against Escherichia coli ATCC 35218 assessed as complete prevention of visible growth after incubation at 37 degC for 18 to 20 hrs.
Assay [2] relates to Staphylococcus aureus. In words: Antimicrobial activity against methicillin-resistant Staphylococcus aureus ATCC 43300 assessed as complete prevention of visible growth after incubation at 37 degC for 18 to 20 hrs.
The subject of assay [3] is Staphylococcus epidermidis. In words: Antimicrobial activity against Staphylococcus epidermidis CMCC 26069 assessed as complete prevention of visible growth after incubation at 37 degC for 18 to 20 hrs.
Assay [4] has as its system Staphylococcus aureus. The assay is described as follows: Antimicrobial activity against ampicillin-resistant Staphylococcus aureus ATCC 29213 assessed as complete prevention of visible growth after incubation at 37 degC for 18 to 20 hrs.
Assay [5] deals with Bacillus subtilis. The assay is described as follows: Antimicrobial activity against Bacillus subtilis CGMCC 1.1470 assessed as complete prevention of visible growth after incubation at 37 degC for 18 to 20 hrs.
Assay [6] concerns Proteus vulgaris. In words: Antimicrobial activity against Proteus vulgaris CMCC 49027 assessed as complete prevention of visible growth after incubation at 37 degC for 18 to 20 hrs.
The test system of assay [7] is Staphylococcus aureus. In words: Antimicrobial activity against Staphylococcus aureus ATCC 25923 assessed as complete prevention of visible growth after incubation at 37 degC for 18 to 20 hrs.
Assay [8] has as its system Enterococcus faecalis. In words: Antimicrobial activity against Enterococcus faecalis ATCC 29212 assessed as complete prevention of visible growth after incubation at 37 degC for 18 to 20 hrs.

A word on the MIC: it is the lowest concentration found to suppress growth. `COc1cc(O)c(-c2c(O)cc(OC)c3c2ccc2cc(O)ccc23)c2ccc3cc(O)ccc3c12` [CIRRHOPETALANTHIN]: the MIC in assay [1] is over 128 µg/mL; in assay [2], 16 µg/mL (≈ 33.4 µM); in assay [3], 16 µg/mL (≈ 33.4 µM); in assay [4], 16 µg/mL (≈ 33.4 µM); in assay [5], 8 µg/mL (≈ 16.7 µM); in assay [6] it was over 128 µg/mL. The MIC in assay [7] is 32 µg/mL (≈ 66.9 µM); in assay [8] it was 16 µg/mL (≈ 33.4 µM).
On to `COc1c(O)ccc2c1ccc1c(-c3c(O)cc(OC)c4c3ccc3c(OC)c(O)ccc34)c(O)cc(OC)c12`, for which the MIC in assay [1] is over 128 µg/mL; in assay [2], 16 µg/mL (≈ 29.7 µM); in assay [3], 8 µg/mL (≈ 14.9 µM); in assay [4], 8 µg/mL (≈ 14.9 µM); in assay [5], 8 µg/mL (≈ 14.9 µM); in assay [6], over 128 µg/mL. The results for the MIC in assay [7] and in assay [8] were 16 µg/mL (≈ 29.7 µM) and 64 µg/mL (≈ 119 µM), respectively.
In the case of `COc1ccc2c(ccc3c(-c4c(O)cc(OC)c5c4CCc4cc(O)ccc4-5)c(O)cc(OC)c32)c1`, the MIC is over 128 µg/mL in assay [1]; 4 µg/mL (≈ 8.09 µM) in assay [2]; 4 µg/mL (≈ 8.09 µM) in assay [3]; 2 µg/mL (≈ 4.04 µM) in assay [4]; 4 µg/mL (≈ 8.09 µM) in assay [5]; over 128 µg/mL in assay [6]. The MIC in assay [7] and in assay [8] was 4 µg/mL (≈ 8.09 µM) each time.
Consider `CC1(C)S[C@@H]2[C@H](NC(=O)[C@H](N)c3ccccc3)C(=O)N2[C@H]1C(=O)O` [AMPICILLIN], for which the MIC was over 8 µg/mL in assay [1]; over 8 µg/mL in assay [2]; 8 µg/mL (≈ 22.9 µM) in assay [3]; 8 µg/mL (≈ 22.9 µM) in assay [4]; over 8 µg/mL in assay [5]; over 8 µg/mL in assay [6]. The figures for the MIC in assay [7] and in assay [8] were 0.125 µg/mL (≈ 0.358 µM) and 4 µg/mL (≈ 11.4 µM), respectively.
On to `COc1cc(O)c2c(c1)CCc1cc(O)c(-c3c(O)cc(OC)c4c3ccc3cc(OC)ccc34)cc1-2`, for which the MIC was over 128 µg/mL in assay [1]; 8 µg/mL (≈ 16.2 µM) in assay [2]; 8 µg/mL (≈ 16.2 µM) in assay [3]; 8 µg/mL (≈ 16.2 µM) in assay [4]; 16 µg/mL (≈ 32.4 µM) in assay [5]; over 128 µg/mL in assay [6]. For the same molecule, the MIC in assay [7] came to 8 µg/mL (≈ 16.2 µM); in assay [8], 64 µg/mL (≈ 129 µM).
In the case of `COc1ccc2c(ccc3c(-c4cc5c(cc4OC)-c4c(cc(O)cc4OC)CC5)c(O)cc(OC)c32)c1`, the MIC in assay [1], in assay [2], in assay [3], in assay [4], in assay [5] and in assay [6] was over 128 µg/mL in each case. Besides, the MIC in assay [7] and in assay [8] was over 128 µg/mL each time.
